The target in assay [1] is T1, Pin1 (Homo sapiens, UniProt Q13526). The assay is described as follows: Pin1 fluorescence polarization competition assay with Tamra-probe (secondary). The conditions noted are these: for Emax: read-out: Tamra Secondary Efficacy; for Tamra Secondary Curve Class: Tamra-probe. (In fluorescence polarisation assays a small probe gives low polarisation when free and higher when bound to something large.)
Method: An assay was developed for the identification of inhibitors of Pin1. […] Candidate compounds were screened in a concentration-titration series (e.g., 57 μM to 0.7 nM).
(§1) Pin1 (0.6 μM) was dispensed into black, solid 1536-well plates (32 rows by 48 columns) at 2 μL/well in Pin1 buffer (10 mM HEPES (pH 7.5), 10 mM NaCl, 0.01% Tween20, 1 mM DTT, and 1% glycerol). Next, 23 nL of compound or DMSO was delivered to each well using a pin tool (tip wash sequence: DMSO, IPA, MeOH, 3 s vacuum dry). Two μL of Pin1-1b-HiFluor488 peptide in buffer (10 mM HEPES (pH 7.5), 10 mM NaCl, 0.01% Tween20, 1 mM DTT, and 1% glycerol, 0.02 μM Pin1-1b-HiFluor488) or DMSO was then dispensed to each well using a pin tool (tip wash sequence: DMSO, IPA, MeOH, 3 s vacuum dry), and plates were incubated at room temperature for 10 min (Table 2). Each plate included controls with no candidate inhibitory compound (32 wells), with unlabeled Pin1-1c titration (3.5 mM to 0.020 mM in a 1:2 dilution series including 2 replicates per concentration; 32 wells), and without Pin1 (64 wells).
(§2) The fluorescence polarization signal of each well was measured on a ViewLux® plate reader using a 480/20 nm excitation filter and 540/25 nm S and P emission filters with a 20 second exposure with 2× binning (Table 2). Percent inhibitory activity was determined from corrected fluorescence polarization values.
(§3) Concentration-response curves were fitted to the signals arising from the resulting fluorescence polarization. The concentration-effect curves were then classified based on curve quality (r^2), response magnitude, and degree of measured activity. Compounds were subsequently categorized based on their curve class.
A further secondary assessment was accomplished by replacing the HiFluor-488-labeled probe with Tamra-probe, a red-shifted fluorophore.

Assay [2] concerns the target T1, Pin1. The assay is described as follows: Pin1 fluorescence polarization competition assay, primary qHTS (HiFluor-488 / Alexa488 probe).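 Further: Pin1 protein with fluorescent peptide probe, compound displacement read by fluorescence polarization, percent inhibition derived from corrected polarization values, concentration-response curves in 1536-well format.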
Method: (§4) The goal of this assay was to identify small-molecule inhibitors of Pin1 using a fluorescence polarization competition assay (FIG. 1). […] Candidate compounds were screened in a concentration-titration series (e.g., 57 μM to 0.7 nM).
as §1, §2, §3
Curves showing change polarized fluorescence may be categorized into 5 classes. Class 1 includes complete curves, having 2 asymptotes and an r^2 value of ≥0.9, with an efficacy of either >80% (class 1.1) or ≤80% (class 1.2). Class 1 curves may also be classified as noisy curves when efficacy is >80% and r^2<0.9 (class 1.3) or when efficacy is ≤80% and r^2<0.9 (class 1.4). Class 2 includes incomplete curves having 1 asymptote and an r^2 value of either >0.9 (subclass a) or <0.9 (subclass b), with an efficacy of either >80% (class 2.1) or ≤80% (class 2.2). Class 2 curves may also be classified as noisy curves when efficacy is >80% and r^2<0.9 (class 2.3) or when efficacy is ≤80% and r^2<0.9 (class 2.4). Class 3 includes single point activity curves having 1 asymptote and an efficacy >3 SD from the mean activity of the sample field at the highest tested concentration. […] A fifth class captures any curves not otherwise classified (FIG. 4).
Assay [3] concerns the target T1, Pin1. In words: confirmatory Pin1 fluorescence polarization competition assay (Alexa488 reconfirmed).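 On all read-outs here: Pin1 competition with a HiFluor488-labelled peptide probe, read as fluorescence polarization after 10 min at room temperature.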 The conditions noted are these: for Emax: read-out: Alexa488 Reconfirmed Efficacy; for Alexa488 Reconfirmed Curve Class: confirmatory retest.
Method: as §4, §1, §2, §3
Setting [4] is: Alexa488 Primary Potency, primary qHTS.
Where [5] appears, read: Average HTS Potency, average over Alexa488 primary, Alexa488 reconfirmed and Tamra secondary assays.
[6] abbreviates: read-out: Alexa488 Primary Efficacy.

The values below come from patent publication US11129835B2, “Methods and compositions for the inhibition of PIN1” (Beth Israel Deaconess Medical Center, Inc., priority 2012, dated 2021).

T1 sequence (Q13526 whole entry): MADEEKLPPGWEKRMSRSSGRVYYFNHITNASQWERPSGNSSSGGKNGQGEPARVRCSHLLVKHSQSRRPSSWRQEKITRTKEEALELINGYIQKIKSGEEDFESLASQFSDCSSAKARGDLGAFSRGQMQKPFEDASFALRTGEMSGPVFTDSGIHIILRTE

One may read the IC50 as the concentration at which inhibition is half-maximal. High values mean a need for much substance, low ones inhibition by little substance. On to `NS(=O)(=O)c1cc(C(=O)NC2CCSc3ccccc32)ccc1Cl` (stereo not drawn) [Compound 11], for which the concentration for half-maximal inhibition (IC50) at Pin1 [1] came out at 4 µM; on Pin1 [2] (setting [4]) it was 3 µM; on Pin1 [2] (setting [5]) it was 3 µM; on Pin1 [3], 3 µM. The Emax turned out to be 91% on Pin1 [1], 65% on Pin1 [2] (setting [6]), 83% on Pin1 [2] (read-out: Average HTS Efficacy) and 93% at Pin1 [3]. Further, the “Alexa488 Primary Curve Class” value on Pin1 [2] (primary qHTS) is given as 1.2 (≤80% (class 1.2)).

On to `Cc1ccc(C)c2c1NC(C(=O)O)C1CC=CC21` (stereo not drawn) [Compound 7], for which the values for the IC50 on Pin1 [1], at Pin1 [2] (setting [4]) and at Pin1 [2] (setting [5]) were 14 µM, 45 µM and 29 µM, respectively. Further, the “Tamra Secondary Curve Class” value at Pin1 [1] was 2.2 (≤80% (class 2.2)). The Emax at Pin1 [1] was determined as 63%; at Pin1 [2] (setting [6]), 63%; at Pin1 [2] (read-out: Average HTS Efficacy) it was 72%; on Pin1 [3] it was 91%. Further, the “Alexa488 Primary Curve Class” value on Pin1 [2] (primary qHTS) was 1.2 (≤80% (class 1.2)). For the same compound, at Pin1 [3], the “Alexa488 Reconfirmed Curve Class” value is recorded as 2.2 (≤80% (class 2.2)).

For the compound `CCCCCCCCCCCCN1[C@@H](C(=O)O)c2cc(C(F)(F)F)ccc2S1(=O)=O` [Compound 34], the IC50 came to 38 µM on Pin1 [1], 20 µM at Pin1 [2] (setting [4]), 27 µM at Pin1 [2] (setting [5]) and 24 µM on Pin1 [3]. Also, the “Tamra Secondary Curve Class” value on Pin1 [1] stood at 3.0. Also, the Emax was 103% at Pin1 [1], 65% at Pin1 [2] (setting [6]), 91% on Pin1 [2] (read-out: Average HTS Efficacy) and 104% at Pin1 [3].

With `CC(=O)c1ccc2c(c1)C1C=CCC1C(C(=O)O)N2` (stereo not drawn) [Compound 1], the IC50 came to 1.2 µM on Pin1 [1], 6 µM on Pin1 [2] (setting [4]), 3 µM at Pin1 [2] (setting [5]) and 1.3 µM on Pin1 [3]. The Emax on Pin1 [1] was 95%; on Pin1 [2] (setting [6]), 66%; at Pin1 [2] (read-out: Average HTS Efficacy), 84%; on Pin1 [3], 90%. Besides, the “Alexa488 Primary Curve Class” value on Pin1 [2] (primary qHTS) was 1.2 (≤80% (class 1.2)).

Consider `C=CCOc1ccc(C(c2c(C(=O)O)[nH]c3ccccc23)c2c(C(=O)O)[nH]c3ccccc23)cc1` [Compound 46], for which the IC50 at Pin1 [1] stood at 21 µM; at Pin1 [2] (setting [4]), 43 µM; on Pin1 [2] (setting [5]), 30 µM; at Pin1 [3] it was 27 µM. For the same compound, the “Tamra Secondary Curve Class” value at Pin1 [1] is reported as 2.2 (≤80% (class 2.2)). Also, the Emax on Pin1 [1] amounted to 78%; on Pin1 [2] (setting [6]), 82%; at Pin1 [2] (read-out: Average HTS Efficacy), 81%; on Pin1 [3], 84%. Further, on Pin1 [2] (primary qHTS), the “Alexa488 Primary Curve Class” value was 2.2 (≤80% (class 2.2)). Besides, at Pin1 [3], the “Alexa488 Reconfirmed Curve Class” value is on record as 2.2 (≤80% (class 2.2)).

As for `O=S(=O)(Nc1nc(-c2sccc2Cl)cs1)c1cc(Cl)ccc1Cl` [Compound 24], the IC50 is 12 µM on Pin1 [1], 43 µM on Pin1 [2] (setting [4]), 23 µM at Pin1 [2] (setting [5]) and 14 µM on Pin1 [3]. Moreover, the Emax on Pin1 [1] was 100%; on Pin1 [2] (setting [6]) it was 76%; at Pin1 [2] (read-out: Average HTS Efficacy) it was 92%; on Pin1 [3], 101%. At Pin1 [2] (primary qHTS), the “Alexa488 Primary Curve Class” value was 1.2 (≤80% (class 1.2)). Further, the “Alexa488 Reconfirmed Curve Class” value on Pin1 [3] was 1.2 (≤80% (class 1.2)).

Consider `COc1ccc(NC(=O)CN(C)C(O)c2cc(-c3ccco3)nc3ccccc23)cc1` (stereo not drawn) [Compound 39], for which the IC50 was 21 µM at Pin1 [1], 14 µM on Pin1 [2] (setting [4]) and 17 µM at Pin1 [2] (setting [5]). The “Tamra Secondary Curve Class” value at Pin1 [1] is listed as 3.0. Moreover, the Emax at Pin1 [1] came to 53%; on Pin1 [2] (setting [6]), 28%; at Pin1 [2] (read-out: Average HTS Efficacy) it was 41%. On Pin1 [2] (primary qHTS), the “Alexa488 Primary Curve Class” value was 2.2 (≤80% (class 2.2)).

Take `O=C(O)C1Nc2c(O)cccc2C2C=CCC12` (stereo not drawn) [Compound 4]: the IC50 at Pin1 [1] came to 11 µM; at Pin1 [2] (setting [4]), 3 µM; on Pin1 [2] (setting [5]), 7 µM. Further, the “Tamra Secondary Curve Class” value at Pin1 [1] is 2.2 (≤80% (class 2.2)). The Emax on Pin1 [1] worked out at 37%; on Pin1 [2] (setting [6]) it was 23%; on Pin1 [2] (read-out: Average HTS Efficacy), 30%. Besides, the “Alexa488 Primary Curve Class” value on Pin1 [2] (primary qHTS) is 1.2 (≤80% (class 1.2)).

For the compound `O=C(O)c1[nH]c2ccccc2c1C(c1cc(Br)ccc1O)c1c(C(=O)O)[nH]c2ccccc12` [Compound 43], the IC50 on Pin1 [1] came out at 24 µM; on Pin1 [2] (setting [4]), 16 µM; at Pin1 [2] (setting [5]), 20 µM. Besides, at Pin1 [1], the “Tamra Secondary Curve Class” value came to 3.0. In addition, the Emax at Pin1 [1] was 71%; at Pin1 [2] (setting [6]), 63%; at Pin1 [2] (read-out: Average HTS Efficacy), 67%. In addition, the “Alexa488 Primary Curve Class” value on Pin1 [2] (primary qHTS) is reported as 1.2 (≤80% (class 1.2)).

Take `Cc1ccc(NC(=O)CN(C)C(=O)c2cccc(-n3cccc3)c2)cc1` [Compound 25]: the IC50 is 30 µM at Pin1 [1], 38 µM on Pin1 [2] (setting [4]) and 34 µM at Pin1 [2] (setting [5]). Further, the “Tamra Secondary Curve Class” value on Pin1 [1] came to 3.0. For the same compound, the Emax is 73% on Pin1 [1], 22% on Pin1 [2] (setting [6]) and 47% on Pin1 [2] (read-out: Average HTS Efficacy). The “Alexa488 Primary Curve Class” value on Pin1 [2] (primary qHTS) is listed as 2.2 (≤80% (class 2.2)).

Regarding `CC(=O)Nc1cc(=O)c2[nH]o[nH]c=2c1=O` [Compound 50], the concentration for half-maximal inhibition (IC50) is 1 µM on Pin1 [2] (setting [4]), 4 µM on Pin1 [2] (setting [5]) and 7 µM at Pin1 [3]. Besides, the Emax at Pin1 [2] (setting [6]) is 93%; on Pin1 [2] (read-out: Average HTS Efficacy), 95%; at Pin1 [3], 98%.

Regarding `Cn1nc(-c2ccncc2)nc2c(=O)n(C)c(=O)nc1-2` [Compound 49], the figures for the IC50 on Pin1 [2] (setting [4]), at Pin1 [2] (setting [5]) and on Pin1 [3] were 50 µM, 25 µM and 1 µM, respectively. The “Alexa488 Primary Curve Class” value at Pin1 [2] (primary qHTS) was 1.2 (≤80% (class 1.2)). The Emax on Pin1 [2] (setting [6]) came to 27%; on Pin1 [2] (read-out: Average HTS Efficacy), 48%; on Pin1 [3], 70%.

For the compound `Cc1cccc(N(Cc2cc(=O)[nH]c3ccccc23)C(=O)CCl)c1` [Compound 10], the IC50 on Pin1 [2] (setting [4]) turned out to be 22.4 µM; at Pin1 [2] (setting [5]), 13.6 µM; at Pin1 [3], 4.8 µM. The “Alexa488 Primary Curve Class” value on Pin1 [2] (primary qHTS) is 2.2 (≤80% (class 2.2)). For the same compound, the Emax on Pin1 [2] (setting [6]) is 81.3%; on Pin1 [2] (read-out: Average HTS Efficacy), 82.1%; on Pin1 [3], 82.9%.

On to `CCn1nc(-c2ccccc2C)nc2c(=O)n(C)c(=O)nc1-2` [Compound 48], for which the IC50 at Pin1 [2] (setting [4]), at Pin1 [2] (setting [5]) and at Pin1 [3] was 1 µM each time. Further, the Emax stood at 53% on Pin1 [2] (setting [6]), 63% at Pin1 [2] (read-out: Average HTS Efficacy) and 73% on Pin1 [3].

Regarding `O=C(c1cccs1)c1no[n+]([O-])c1C(=O)c1cccs1` [Compound 28], the IC50 at Pin1 [2] (setting [4]) was found to be 1.69 µM; on Pin1 [2] (setting [5]), 0.89 µM; at Pin1 [3], 0.08 µM. In addition, the values for the Emax on Pin1 [2] (setting [6]), at Pin1 [2] (read-out: Average HTS Efficacy) and on Pin1 [3] were 89%, 94% and 99%, respectively.

Take `COc1cc(/C=C2\SC(=O)N(c3ccc(Cl)cc3)C2=O)cc([N+](=O)[O-])c1O` [Compound 38]: the IC50 at Pin1 [2] (setting [4]) stood at 19 µM; on Pin1 [2] (setting [5]), 13 µM; at Pin1 [3] it was 6 µM. Moreover, the results for the Emax at Pin1 [2] (setting [6]), on Pin1 [2] (read-out: Average HTS Efficacy) and on Pin1 [3] were 103%, 101% and 98%, respectively.

For `CCOc1cc(Br)cc(C(c2c(C(=O)O)[nH]c3ccccc23)c2c(C(=O)O)[nH]c3ccccc23)c1O` [Compound 45], the IC50 amounted to 38 µM at Pin1 [1], 22 µM on Pin1 [2] (setting [4]) and 30 µM at Pin1 [2] (setting [5]). Further, the “Tamra Secondary Curve Class” value at Pin1 [1] was found to be 3.0. The figures for the Emax on Pin1 [1], at Pin1 [2] (setting [6]) and at Pin1 [2] (read-out: Average HTS Efficacy) were 71%, 72% and 71%, respectively.
